{"source": "patent US20240252493A1", "about": "“Apelin Receptor Modulators for Treating Age-Related Muscle Conditions” (BIOAGE LABS, INC., priority 2021, published 2024)", "key": {"[1]": {"system": "Pax7, MyoD, MyoG, Myf5, MyHC3, and MyHC8", "assay": "CTX-induced muscle injury: transcript levels of regeneration genes", "format": "in vivo, mice", "method": "Impairment of muscle regeneration can contribute to age-related muscle weakness. This is particularly true in aged individuals who engage in physical activity. Exercise-induced muscle hypertrophy is linked to the capacity of muscle stem cells to be activated and promote regeneration. […] Mice were i.p injected with buprenorphine (Centravet, 0.1 mg/kg) 30 minutes before injury and the day after. The day of the injury, mice were anesthetized with isoflurane inhalation and hindlimbs were shaved. Then, 10 μM of cardiotoxin (CTX, Latoxan, #L8102) was injected through two injections of 25 μl into the left tibialis muscle and two injections of 50 μl into the left gastrocnemius muscle, using a 22-gauge needle (Hamilton). Mice were euthanized 3 and 7 days after injury by cervical dislocation, muscles (PBS- and CTX-injected) were cut in two parts, one being snap frozen into liquid nitrogen for total RNA extraction and the other part being embedded into OCT, frozen in isopentane cooled with liquid nitrogen for histological analysis."}, "pAMPK": {"system": "pAMPK", "assay": "Western blot of pAMPK in heart after oral BGE-105", "format": "in vivo", "details": "mice, oral 45 mg/kg, vs vehicle", "source_text": "(§1) Administration of an apelin receptor agonist can induce the phosphorylation and activation of AMPK in heart tissue. Tissue samples were lysed using T-PER tissue protein extraction reagent (Thermo Fisher Scientific #78510) containing EDTA and protease/phosphatase inhibitors on the Omni Bead Ruptor 12 Homogenizer. Total protein was extracted then quantified using Pierce™ BCA Protein Assay Kit. Loaded equal amounts of total protein per lane on a 4-12% SDS-PAGE gel and transferred to PVDF membrane. Membranes were blocked and blotted with anti-phospho-AMPKα-Thr172 (Cell Signaling Technology, CST #2535), total-AMPKα (CST #2532), anti-phospho-Akt-SeR^473 (CST #4060), total-Akt (CST #4685), anti-phospho-ERK-1/2-Thr202/Tyr204 of Erk1 and Thr185/Tyr187 of Erk2 (CST #4370), total-ERK-1/2 (CST #9107) or anti-APLNR receptor (abcam, ab214369) antibodies. Band intensities were normalized to loading control anti-β-Actin (CST #3700) or anti-GAPDH (abcam, ab181602) antibodies. Immunoreactive proteins were detected using SuperSignal™ West Femto Substrate (Thermo Fisher Scientific #34095) and quantified by Image Lab™ software (Bio-Rad Laboratories, Inc.).\nApelin can induce the phosphorylation of Akt in the soleus muscle and improve glucose homeostasis. […]"}, "apelin receptor [2]": {"system": "apelin receptor", "assay": "Apelin receptor protein levels in rat TA after chronic dosing", "format": "in vivo", "details": "rats, 5 consecutive days oral, 50 mg/kg QD and 200 mg/kg BID", "source_text": "as §1\nThe difference between tissues was conserved among rodent species: In rats, as in mice, apelin receptor levels in rat tissue were 2-fold higher in heart than in soleus, FIGS. 5A-5B. […]"}, "apelin receptor [3]": {"system": "apelin receptor", "assay": "Apelin receptor levels after one month of BGE-105 in immobilized aged mice", "format": "in vivo", "details": "after one month of treatment at 50 mg/kg BID", "protocol": "After 3 weeks of treatment following casting, mice were euthanized 1 hour after the final ZT1 dose, and tissues isolated, weighed, then flash frozen in liquid nitrogen for subsequent western blot analysis."}, "25-HMC": {"system": "25-HMC", "assay": "Early proliferation marker expression (RT-PCR), younger donor cells", "format": "cell-based, human", "method": "(§2) Immortalized human cells from male donors (25-HMC) […] (79-HMC) are grown from the proliferation stage until they become 80% confluent, differentiate, and become myotubes. […] Early proliferation markers (Pax7, Myf5, MyoD, and MyoG were assessed via RT-PCR (FIG. 8D to 8K)"}, "[4]": {"system": "aged (24-month-old) C57BL/6 mice", "assay": "Grid hang test (forearm grip strength)", "format": "in vivo", "details": "after 64 days of treatment, vs vehicle", "method": "Four 20-gallon plastic buckets were used to suspend a three-by-three-foot metal grid suspended approximately three feet from the ground. The ground just below the grid was padded with soft material. The metal grid was placed on its side so that it was perpendicular to the buckets' surface. […] Once the grid was completely parallel with the horizontal plane (i.e. the floor), the timer was started. The timer was stopped when the mouse fell onto the padded floor and the time to fall was recorded and graphed.\n(§3) To determine whether increased wheel activity was accompanied by an increase in muscle strength, near the end of the frailty study the mice were subjected to a grid hang test, which measures forearm grip strength. […] Average latency to fall increased in the BGE-105-treated mice (p=0.04, Mann-Whitney U test) (FIGS. 3B and 3C). Thus, the increase in running activity observed in BGE-105-treated mice were accompanied by improved forearm grip strength."}, "rats": {"system": "rats", "details": "cited from earlier work"}, "[5]": {"system": "aged (24-month-old) C57BL/6 mice", "assay": "Tissue wet weight and body weight at end of frailty study", "format": "in vivo", "details": "vs vehicle", "method": "The animals were housed with access to voluntary running wheels that wirelessly transmit running data to a computer for analysis. Voluntary running wheel activity levels were measured daily, and body weights were measured every 2 weeks.\nas §3"}, "79-HMC": {"system": "79-HMC", "assay": "Early proliferation marker expression (RT-PCR), older donor cells", "format": "cell-based, human", "method": "as §2"}, "[6]": {"details": "gastrocnemius, aged mice, 3 or 7 days, apelin 0.5 μmol/kg/day, BGE-105 50 and 200 mg/kg/day"}, "[7]": {"details": "gastrocnemius, young mice, 3 or 7 days, apelin 0.5 μmol/kg/day, BGE-105 50 and 200 mg/kg/day"}, "[8]": {"details": "tibialis anterior, aged mice, 7 days, apelin 0.5 μmol/kg/day, BGE-105 50 and 200 mg/kg/day"}, "[9]": {"details": "tibialis, young mice, 3 or 7 days, apelin 0.5 μmol/kg/day, BGE-105 50 and 200 mg/kg/day"}}, "note": "“Also recorded” adds a separate entry of the source.", "data": [{"compound": "COc1cccc(OC)c1-n1c(NS(=O)(=O)[C@@H](C)[C@H](C)c2ncc(C)cn2)nnc1-c1cncc(C)c1", "note": "[BGE-105, (2S,3R)—N-(4-(2,6-dimethoxyphenyl)-5-(5-methyl-3-pyridinyl)-4H-1,2,4-triazol-3-yl)-3-(5-methyl-2-pyrimidinyl)-2-butanesulfonamide]", "values": [{"measurement": "expression levels of genes involved in muscle regeneration (Pax7, MyoD, MyoG, Myf5, MyHC3, MyHC8)", "setting": "[1]; aged (18-month-old) mice, tibialis, 7 days after CTX, vs PBS", "result": "significantly higher levels of several mRNA transcripts; also recorded: dramatically higher"}, {"measurement": "effect on regeneration gene expression in gastrocnemius compared with tibialis", "setting": "[1]; aged mice, gastrocnemius", "result": "not as prominent"}, {"measurement": "Pax7 transcript levels", "setting": "[1]; gastrocnemius, aged (18-month-old) mice, 3 or 7 days, apelin 0.5 μmol/kg/day, BGE-105 50 and 200 mg/kg/day", "result": "no significant change"}, {"measurement": "MyoD transcript levels", "setting": "[1]; gastrocnemius, aged mice, 3 and 7 days, apelin 0.5 μmol/kg/day, BGE-105 50 and 200 mg/kg/day", "result": "significant increase"}, {"measurement": "Myf5 transcript levels", "setting": "[1]; [6]", "result": "no significant change"}, {"measurement": "MyoG transcript levels", "setting": "[1]; [6]", "result": "no significant change"}, {"measurement": "MyHC8 transcript levels", "setting": "[1]; gastrocnemius, aged mice, any time point, any treatment", "result": "does not show a change"}, {"measurement": "MyHC3 transcript levels", "setting": "[1]; gastrocnemius, aged mice, only at 7 days, BGE-105 200 mg/kg/day", "result": "significant increase"}, {"measurement": "Pax7 transcript levels", "setting": "[1]; gastrocnemius, young (3-month-old) mice, 3 or 7 days, apelin 0.5 μmol/kg/day, BGE-105 50 and 200 mg/kg/day", "result": "no change"}, {"measurement": "Myf5 transcript levels", "setting": "[1]; [7]", "result": "no change"}, {"measurement": "MyoD transcript levels", "setting": "[1]; [7]", "result": "no change"}, {"measurement": "MyoG transcript levels", "setting": "[1]; [7]", "result": "no change"}, {"measurement": "MyHC8 transcript levels", "setting": "[1]; gastrocnemius, young mice, 3 days, apelin 0.5 μmol/kg/day, BGE-105 50 and 200 mg/kg/day", "result": "non-significant increase"}, {"measurement": "MyHC3 transcript levels", "setting": "[1]; gastrocnemius, young mice, only 3 days, BGE-105 50 mg/kg/day", "result": "increase"}, {"measurement": "Pax7 transcript levels", "setting": "[1]; tibialis anterior, aged (18-month-old) mice, 7 days post cardiotoxin, apelin 0.5 μmol/kg/day, BGE-105 50 and 200 mg/kg/day", "result": "significant increase"}, {"measurement": "MyoD transcript levels", "setting": "[1]; tibialis anterior, aged mice, 3 and 7 days post cardiotoxin, apelin 0.5 μmol/kg/day, BGE-105 50 and 200 mg/kg/day", "result": "significant increase"}, {"measurement": "MyHC3 transcript levels", "setting": "[1]; [8]", "result": "significant increase"}, {"measurement": "Myf5 transcript levels", "setting": "[1]; [8]", "result": "significant change"}, {"measurement": "MyoG transcript levels", "setting": "[1]; [8]", "result": "significant increase"}, {"measurement": "Pax7 transcript levels", "setting": "[1]; tibialis, young (3-month-old) mice, 3 or 7 days, apelin 0.5 μmol/kg/day, BGE-105 50 and 200 mg/kg/day", "result": "no change"}, {"measurement": "MyHC3 transcript levels", "setting": "[1]; [9]", "result": "no significant change"}, {"measurement": "MyHC8 transcript levels", "setting": "[1]; [9]", "result": "no significant change"}, {"measurement": "Myf5 transcript levels", "setting": "[1]; [9]", "result": "no difference"}, {"measurement": "MyoD transcript levels", "setting": "[1]; [9]", "result": "no significant increase"}, {"measurement": "MyoG transcript levels", "setting": "[1]; [9]", "result": "no difference"}, {"measurement": "effect on regeneration gene expression in young mice", "setting": "[1]; young (3-month-old) mice", "result": "not as effective"}, {"measurement": "pAMPK levels in the heart", "setting": "pAMPK", "result": "increased levels; also recorded: significantly higher"}, {"measurement": "apelin receptor levels in the TA", "setting": "apelin receptor [2]", "result": "modest but non-significant decrease"}, {"measurement": "apelin receptor levels", "setting": "apelin receptor [3]", "result": "noticeable but non-significant drop"}, {"measurement": "expression of muscle cell differentiation markers Pax7 and MyoD", "setting": "25-HMC; young donor cells", "result": "increased the expression"}, {"measurement": "MyoD expression", "setting": "25-HMC; younger cells, 5 nM", "result": "very significant increase"}, {"measurement": "Myf5 expression", "setting": "25-HMC; younger cells, 5 and 50 nM", "result": "equal to apelin treatment"}, {"measurement": "Pax7 expression", "setting": "25-HMC; younger cells, 5 and 50 nM", "result": "recapitulated the levels of apelin"}, {"measurement": "MyoG expression (FIG. 8F)", "setting": "25-HMC; younger cells, any amount of BGE-105, relative to control", "result": "no change"}, {"measurement": "latency to fall in grid hang test (grip strength)", "setting": "[4]", "result": "statistically significant improvement in grip strength; also recorded: increase in the latency to fall; also recorded: increased"}, {"measurement": "cardiovascular response", "setting": "rats", "result": "induces a cardiovascular response"}, {"measurement": "body weight", "setting": "[5]", "result": "the increase was not significant"}, {"measurement": "tissue wet weight, gastrocnemius", "setting": "[5]", "result": "trend toward higher tissue wet weight"}, {"measurement": "tissue wet weight, heart", "setting": "[5]", "result": "no difference"}, {"measurement": "tissue wet weight, quadriceps", "setting": "[5]", "result": "trend toward higher tissue wet weight"}, {"measurement": "tissue wet weight, tibialis anterior (TA)", "setting": "[5]", "result": "significantly higher tissue wet weight"}, {"measurement": "expression of muscle cell differentiation markers Pax7, Myf5, MyoD, and MyoG", "setting": "79-HMC; aged-donor cells", "result": "increased the expression"}, {"measurement": "Pax7 levels", "setting": "79-HMC; older cells, 0.05, 0.5, 5, 50 nM, vs control", "result": "significant increase at all treatment doses"}, {"measurement": "MyoG levels", "setting": "79-HMC; older cells, all treatment levels", "result": "increase at all treatment levels"}, {"measurement": "Myf5 expression", "setting": "79-HMC; older donor cells, 5 and 50 nM", "result": "equal to apelin treatment"}, {"measurement": "MyoD levels", "setting": "79-HMC; older donor cells, all treatment levels", "result": "increase at all treatment levels"}]}]}
